From patent publication US20180044685A1, “APPLICATION OF SYK SERVING AS THERAPEUTIC TARGET FOR HEPATIC FIBROSIS/HEPATIC CIRRHOSIS” (priority 2015, published 2018)

How the values were obtained:
[1] = test system: mouse hepatic fibrosis model induced by CCl4; test: Mouse hepatic fibrosis model induced by carbon tetrachloride (CCl4); assay type: in vivo; details: gavage 5 mg/kg once a day, 6 weeks
Description: Mouse hepatic fibrosis model: male C577BL/6 mice (8-week old) were used with 8 in each group and were injected intra-abdominally with 0.2 ml (diluted by olive oil) of 10% CCl4 twice a week; and a control group was injected intra-abdominally with an equal volume of olive oil for 18 consecutive weeks.

[2] = test system: chronic lymphocytic leukemia; details: phase II clinical trials of chronic lymphocytic leukemia; cited from earlier work

Structure (SMILES): c1cn2cc(-c3ccc4cn[nH]c4c3)nc(Nc3ccc(N4CCOCC4)cc3)c2n1 [GS-9973, Entospletinib]
- generation of hepatic collagen (Sirius Red staining) [1]: remarkably inhibit
- effective rate [2]: 91%
